# Values quoted from earlier work, collected in paper PMC9366781 (ACS Omega, 2022).
# Read-outs that look alike come from different tables or passages of the source.
# System: EGFR
Substance,"affinity to the EGFR (different EGFR-positive cell lines (among these A431, MDA-MB-468, U87MG))",affinity to the EGFR (same study as GE11 monomer) [nM]
Tyr-His-Trp-Tyr-Gly-Tyr-Thr-Pro-Gln-Asn-Val-Ile [GE11],more than 1 mM,–
"hEGF: endogenous EGFR ligand human epidermal growth factor, internal reference standard",–,5.1 ± 0.9
